Measurements as given in PubChem BioAssay AID1794809.
Records with an inconclusive call do not appear.

Target: Sodium- and chloride-dependent glycine transporter 1 (Homo sapiens) (UniProt P48067)
Experiment: PubChem AID 1794809
Settings: HEK-293 SLC6A9 OE, FLIPR membrane potential dye

Sequence of Sodium- and chloride-dependent glycine transporter 1 (Homo sapiens) (P48067 whole entry, looked up): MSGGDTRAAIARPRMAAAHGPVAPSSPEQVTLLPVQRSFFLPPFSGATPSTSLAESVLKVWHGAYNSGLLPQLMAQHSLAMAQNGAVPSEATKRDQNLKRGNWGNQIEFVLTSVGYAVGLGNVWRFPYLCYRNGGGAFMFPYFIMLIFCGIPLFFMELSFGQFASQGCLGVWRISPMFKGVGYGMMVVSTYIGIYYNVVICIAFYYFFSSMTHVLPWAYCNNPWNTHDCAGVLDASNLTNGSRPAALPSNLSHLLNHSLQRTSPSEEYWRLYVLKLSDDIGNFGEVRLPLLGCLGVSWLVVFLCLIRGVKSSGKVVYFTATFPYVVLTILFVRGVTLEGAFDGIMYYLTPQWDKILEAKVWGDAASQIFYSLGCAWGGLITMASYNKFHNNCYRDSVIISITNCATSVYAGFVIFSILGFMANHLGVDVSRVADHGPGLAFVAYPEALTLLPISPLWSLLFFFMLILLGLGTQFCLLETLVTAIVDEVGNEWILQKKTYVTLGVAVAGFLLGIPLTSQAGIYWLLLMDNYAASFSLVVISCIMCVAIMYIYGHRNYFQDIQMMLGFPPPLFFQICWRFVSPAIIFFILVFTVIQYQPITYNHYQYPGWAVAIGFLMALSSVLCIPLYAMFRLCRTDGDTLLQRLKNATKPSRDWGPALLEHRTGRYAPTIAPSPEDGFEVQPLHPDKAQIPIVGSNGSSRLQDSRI

- EC50: 106 µM
SMILES: NCC(=O)O
